Laboratory results from article PMC9942948 (Journal of medicinal chemistry, 2022).
pIC50: −log10 of the molar value. Each block holds one compound with its values, some of them ahead of it.

Assays:
WT Polθ = WT Polθ (Homo sapiens, UniProt O75417); assay: Differential Scanning Fluorimetry; assay type: binding; conditions: compound alone, no DNA
[1] = Mouse liver microsomal stability; assay type: in vitro ADME; conditions: liver microsomes
[2] = Metabolite identification in mouse microsomes; assay type: in vitro ADME
[3] = Metabolite identification in human microsomes; assay type: in vitro ADME
[4] = target: full-length Polθ (aa 1–2590), ATPase activity (Homo sapiens, UniProt O75417); assay: Full-length Polθ ATPase activity; assay type: biochemical
[5] = tested on: Polθ-mediated MMEJ repair at AAVS1 locus in HCT116 WT cells; assay: Cas9-induced double-strand DNA break assay; assay type: cell-based; conditions: Homo sapiens, HCT-116, read-out: potency in DSB repair of AAVS1 loci
[6] = tested on: MMEJ in 293T-Lig4−/−TLR1.1 cells; assay: Traffic-light reporter assay; assay type: cell-based, human; conditions: HEK293 LIG4−/− cell line
in vitro = in vitro ADME, canine; conditions: dog, MDCK
[7] = Mouse PK, iv/po in CD1 mice; assay type: in vivo; conditions: female, whole blood, 2.5 mg/kg
[8] = tested on: HCT116 BRCA2+/+ xenograft tumors; assay: HCT116 BRCA2+/+ xenograft efficacy; assay type: in vivo, mouse; conditions: 80 mg/kg BID PO, 21 days
[9] = tested on: HCT116 BRCA2−/− xenograft tumors; assay: HCT116 BRCA2−/− xenograft efficacy; assay type: in vivo, mouse; conditions: 80 mg/kg BID PO, BRCA2-deficient HCT116
[10] = Tolerability in the xenograft study; assay type: in vivo
[11] = PK on days 1 and 7 of BID oral dosing in CD-1 nude mice; assay type: in vivo; conditions: Day 7 vs Day 1, BID oral
[12] = tested on: HCT116 BRCA2−/− xenograft tumor cells; assay: PD markers by immunofluorescence in cells isolated from tumors; assay type: in vivo, mouse
Pol ε = Pol ε (Homo sapiens, UniProt Q07864); assay: DNA polymerase selectivity, Pol ε
Pol λ = target: T1, Pol λ (Homo sapiens, UniProt Q9UGP5); assay: DNA polymerase selectivity, Pol λ
T1 sequence (Q9UGP5 1-575): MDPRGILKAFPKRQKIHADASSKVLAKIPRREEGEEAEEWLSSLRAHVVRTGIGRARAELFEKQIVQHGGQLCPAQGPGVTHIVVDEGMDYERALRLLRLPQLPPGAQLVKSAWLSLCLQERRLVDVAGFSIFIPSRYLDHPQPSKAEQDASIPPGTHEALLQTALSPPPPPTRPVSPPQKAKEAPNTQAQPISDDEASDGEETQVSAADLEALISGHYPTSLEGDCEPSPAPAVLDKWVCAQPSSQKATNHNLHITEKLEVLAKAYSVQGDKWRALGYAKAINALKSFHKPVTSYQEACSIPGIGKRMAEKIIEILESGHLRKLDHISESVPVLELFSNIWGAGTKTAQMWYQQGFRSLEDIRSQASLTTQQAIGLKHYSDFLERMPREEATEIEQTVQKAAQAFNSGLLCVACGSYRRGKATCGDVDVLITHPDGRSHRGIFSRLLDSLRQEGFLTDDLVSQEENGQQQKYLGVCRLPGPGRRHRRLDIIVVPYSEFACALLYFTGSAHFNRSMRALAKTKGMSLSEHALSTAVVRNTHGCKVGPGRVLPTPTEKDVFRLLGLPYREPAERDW

Pol μ = Pol μ (Homo sapiens, UniProt Q9NP87); assay: DNA polymerase selectivity, Pol μ
[13] = nude mice, 80 mg/kg BID PO, 21 days

Pol ε, sequence (Q07864 whole entry): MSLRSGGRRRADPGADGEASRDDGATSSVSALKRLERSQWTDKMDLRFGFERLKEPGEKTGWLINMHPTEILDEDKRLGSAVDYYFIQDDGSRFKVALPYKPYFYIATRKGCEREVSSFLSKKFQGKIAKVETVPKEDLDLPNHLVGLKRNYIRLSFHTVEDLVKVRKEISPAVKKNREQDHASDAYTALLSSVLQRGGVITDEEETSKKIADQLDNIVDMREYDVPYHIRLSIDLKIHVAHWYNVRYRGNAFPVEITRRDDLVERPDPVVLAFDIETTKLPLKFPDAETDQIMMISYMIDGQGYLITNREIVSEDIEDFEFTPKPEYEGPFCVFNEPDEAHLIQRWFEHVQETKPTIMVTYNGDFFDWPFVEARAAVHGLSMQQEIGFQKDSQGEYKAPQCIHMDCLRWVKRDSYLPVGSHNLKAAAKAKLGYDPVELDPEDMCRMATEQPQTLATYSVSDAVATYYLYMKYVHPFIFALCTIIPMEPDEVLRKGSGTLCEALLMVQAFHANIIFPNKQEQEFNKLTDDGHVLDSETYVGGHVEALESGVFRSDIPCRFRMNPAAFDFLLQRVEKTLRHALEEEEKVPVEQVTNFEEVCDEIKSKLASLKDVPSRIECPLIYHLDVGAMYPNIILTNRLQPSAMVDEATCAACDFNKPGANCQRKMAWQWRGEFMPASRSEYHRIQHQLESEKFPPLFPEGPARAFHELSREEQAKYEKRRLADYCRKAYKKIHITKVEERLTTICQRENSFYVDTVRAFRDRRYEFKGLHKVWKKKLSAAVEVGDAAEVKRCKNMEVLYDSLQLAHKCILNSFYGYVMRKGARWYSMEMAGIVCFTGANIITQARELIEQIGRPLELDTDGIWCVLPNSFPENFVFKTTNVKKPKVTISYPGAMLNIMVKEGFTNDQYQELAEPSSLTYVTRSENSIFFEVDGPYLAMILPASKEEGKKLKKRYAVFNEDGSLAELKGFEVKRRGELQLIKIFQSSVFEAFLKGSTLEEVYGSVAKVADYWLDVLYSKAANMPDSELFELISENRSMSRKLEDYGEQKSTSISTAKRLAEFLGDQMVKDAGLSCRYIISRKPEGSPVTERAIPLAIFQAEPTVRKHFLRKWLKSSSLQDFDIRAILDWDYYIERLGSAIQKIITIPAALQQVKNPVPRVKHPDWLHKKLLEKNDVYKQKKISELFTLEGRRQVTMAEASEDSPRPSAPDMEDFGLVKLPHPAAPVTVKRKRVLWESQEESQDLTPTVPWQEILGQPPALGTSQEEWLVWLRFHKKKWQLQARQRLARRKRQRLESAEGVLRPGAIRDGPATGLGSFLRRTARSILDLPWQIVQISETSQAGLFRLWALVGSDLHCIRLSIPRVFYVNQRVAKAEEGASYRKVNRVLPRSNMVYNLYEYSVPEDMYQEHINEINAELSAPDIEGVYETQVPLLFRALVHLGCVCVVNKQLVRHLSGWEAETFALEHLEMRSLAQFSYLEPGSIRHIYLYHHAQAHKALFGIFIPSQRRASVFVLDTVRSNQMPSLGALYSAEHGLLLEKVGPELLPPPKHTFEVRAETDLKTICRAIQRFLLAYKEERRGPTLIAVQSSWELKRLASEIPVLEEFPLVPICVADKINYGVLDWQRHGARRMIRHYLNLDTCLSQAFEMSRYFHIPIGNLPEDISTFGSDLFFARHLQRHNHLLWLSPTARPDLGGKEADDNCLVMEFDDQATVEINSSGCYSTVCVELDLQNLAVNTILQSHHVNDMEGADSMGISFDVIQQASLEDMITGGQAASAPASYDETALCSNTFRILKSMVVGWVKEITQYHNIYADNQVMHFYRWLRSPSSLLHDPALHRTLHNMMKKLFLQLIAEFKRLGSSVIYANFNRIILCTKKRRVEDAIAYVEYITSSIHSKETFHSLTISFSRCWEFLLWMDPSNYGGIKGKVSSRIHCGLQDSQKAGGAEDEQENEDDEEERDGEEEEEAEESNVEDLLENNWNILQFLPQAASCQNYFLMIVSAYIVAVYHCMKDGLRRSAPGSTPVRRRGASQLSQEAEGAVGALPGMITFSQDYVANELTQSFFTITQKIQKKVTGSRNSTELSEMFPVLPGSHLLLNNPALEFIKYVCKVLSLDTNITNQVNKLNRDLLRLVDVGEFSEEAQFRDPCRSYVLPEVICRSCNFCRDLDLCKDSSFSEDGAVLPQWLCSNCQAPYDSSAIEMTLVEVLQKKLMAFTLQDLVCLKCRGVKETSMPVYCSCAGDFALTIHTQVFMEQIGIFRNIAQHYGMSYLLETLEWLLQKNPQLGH
WT Polθ, sequence (O75417 whole entry): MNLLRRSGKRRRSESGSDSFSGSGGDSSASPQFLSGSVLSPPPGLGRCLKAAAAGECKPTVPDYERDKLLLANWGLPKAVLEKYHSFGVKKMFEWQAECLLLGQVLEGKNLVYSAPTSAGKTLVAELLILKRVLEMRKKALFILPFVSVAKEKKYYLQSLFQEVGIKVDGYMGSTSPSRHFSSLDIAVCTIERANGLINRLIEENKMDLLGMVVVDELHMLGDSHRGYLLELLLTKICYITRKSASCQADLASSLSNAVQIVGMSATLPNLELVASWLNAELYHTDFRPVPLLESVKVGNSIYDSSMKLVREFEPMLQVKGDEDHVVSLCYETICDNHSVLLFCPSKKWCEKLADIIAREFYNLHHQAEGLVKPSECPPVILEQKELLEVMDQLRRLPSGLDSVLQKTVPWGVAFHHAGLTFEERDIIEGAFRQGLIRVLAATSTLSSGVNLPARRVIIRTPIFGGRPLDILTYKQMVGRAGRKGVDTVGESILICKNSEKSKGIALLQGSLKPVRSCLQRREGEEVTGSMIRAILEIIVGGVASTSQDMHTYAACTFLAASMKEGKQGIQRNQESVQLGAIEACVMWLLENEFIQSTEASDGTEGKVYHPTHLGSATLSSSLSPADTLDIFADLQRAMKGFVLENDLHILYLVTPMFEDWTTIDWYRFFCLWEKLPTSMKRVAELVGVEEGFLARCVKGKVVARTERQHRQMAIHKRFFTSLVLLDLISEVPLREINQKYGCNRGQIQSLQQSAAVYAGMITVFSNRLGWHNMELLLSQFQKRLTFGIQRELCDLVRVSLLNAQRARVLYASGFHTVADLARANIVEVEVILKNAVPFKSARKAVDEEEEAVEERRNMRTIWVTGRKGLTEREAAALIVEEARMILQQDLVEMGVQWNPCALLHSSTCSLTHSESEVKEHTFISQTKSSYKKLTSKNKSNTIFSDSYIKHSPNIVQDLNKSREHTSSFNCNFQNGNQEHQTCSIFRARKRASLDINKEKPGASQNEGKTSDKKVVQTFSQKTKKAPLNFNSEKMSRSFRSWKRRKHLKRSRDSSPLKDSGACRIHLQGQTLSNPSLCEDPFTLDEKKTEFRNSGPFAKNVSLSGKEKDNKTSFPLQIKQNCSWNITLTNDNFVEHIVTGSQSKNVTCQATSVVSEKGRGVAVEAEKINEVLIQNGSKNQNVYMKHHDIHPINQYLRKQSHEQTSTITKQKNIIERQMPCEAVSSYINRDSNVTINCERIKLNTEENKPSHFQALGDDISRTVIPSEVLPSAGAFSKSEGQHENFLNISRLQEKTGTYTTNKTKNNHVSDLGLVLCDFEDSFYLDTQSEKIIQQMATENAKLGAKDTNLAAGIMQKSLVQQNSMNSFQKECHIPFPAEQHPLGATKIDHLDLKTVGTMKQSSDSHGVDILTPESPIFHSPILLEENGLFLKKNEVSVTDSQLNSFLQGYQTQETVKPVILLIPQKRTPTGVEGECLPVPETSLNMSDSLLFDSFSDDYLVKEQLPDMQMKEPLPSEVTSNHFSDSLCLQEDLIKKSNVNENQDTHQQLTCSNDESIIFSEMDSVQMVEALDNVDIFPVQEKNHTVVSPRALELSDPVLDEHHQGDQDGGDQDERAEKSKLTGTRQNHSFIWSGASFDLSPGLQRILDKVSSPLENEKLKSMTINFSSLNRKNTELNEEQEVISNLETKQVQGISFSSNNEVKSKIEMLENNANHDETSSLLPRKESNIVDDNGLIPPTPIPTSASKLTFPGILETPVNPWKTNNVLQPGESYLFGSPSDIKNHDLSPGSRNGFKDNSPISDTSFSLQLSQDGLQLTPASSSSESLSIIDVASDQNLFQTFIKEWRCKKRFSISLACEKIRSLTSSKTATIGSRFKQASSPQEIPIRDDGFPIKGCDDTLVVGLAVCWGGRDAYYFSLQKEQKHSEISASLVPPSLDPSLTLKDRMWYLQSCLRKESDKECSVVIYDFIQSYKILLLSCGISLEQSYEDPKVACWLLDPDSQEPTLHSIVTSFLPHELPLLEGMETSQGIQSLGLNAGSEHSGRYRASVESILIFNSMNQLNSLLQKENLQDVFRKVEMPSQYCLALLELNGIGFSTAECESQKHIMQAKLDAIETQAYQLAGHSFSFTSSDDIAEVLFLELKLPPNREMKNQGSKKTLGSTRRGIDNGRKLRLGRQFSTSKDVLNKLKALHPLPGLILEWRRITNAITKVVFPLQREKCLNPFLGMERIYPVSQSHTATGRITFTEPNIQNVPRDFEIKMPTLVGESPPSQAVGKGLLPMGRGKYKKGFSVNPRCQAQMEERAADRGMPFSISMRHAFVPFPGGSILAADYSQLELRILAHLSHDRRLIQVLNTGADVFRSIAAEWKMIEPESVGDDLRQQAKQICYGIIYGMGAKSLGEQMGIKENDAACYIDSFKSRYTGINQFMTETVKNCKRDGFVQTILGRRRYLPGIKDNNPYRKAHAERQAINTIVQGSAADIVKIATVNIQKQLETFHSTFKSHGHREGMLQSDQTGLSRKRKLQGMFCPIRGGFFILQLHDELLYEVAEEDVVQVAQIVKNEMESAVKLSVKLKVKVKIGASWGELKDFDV
full-length Polθ (aa 1–2590), ATPase activity, sequence (O75417 whole entry, the tested form may be a part): as the sequence (O75417 whole entry) above

thermal stabilization of WT Polθ (WT Polθ): did not show any thermal stabilization
Structure (SMILES): CC1CCc2nn(CC(=O)N(C)c3ccccc3)c(C(F)(F)F)c21 (stereo not drawn) [Compound 9]

thermal stabilization of WT Polθ (WT Polθ): did not show any thermal stabilization
Structure (SMILES): CN(C(=S)Cn1nc2c(c1C(F)(F)F)CCC2)c1ccccc1 [Compound 14]

microsomal CLint [1]: > 555 µL/min/mg
Structure (SMILES): CN(C(=O)Cc1ccc(C(F)(F)F)cc1C(F)(F)F)c1ccccc1 [Compound 15]
major routes of metabolism [2]: N-demethylation and hydroxylation of the phenyl ring
major routes of metabolism [3]: N-demethylation and hydroxylation of the phenyl ring

Structure (SMILES): Nc1ccc(C#CCN(C(=O)Cc2ncc(C(F)(F)F)cc2C(F)(F)F)c2ccc(F)cc2)nn1 [RP-6685, N-[3-(6-Aminopyridazin-3-yl)prop-2-ynyl]-2-[3,5-bis(trifluoromethyl)-2-pyridyl]-N-(4-fluorophenyl)acetamide]
activity on the ATPase activity of full-length Polθ [4]: inactive
pIC50 [5]: 6.30
effect on MMEJ in TLR assay [6]: dose-dependent decrease in MMEJ
Papp (in vitro): 6.2 ×10⁻⁶ cm/s
clearance [7]: 36.8 mL/min/kg
tumor growth inhibition [8]: no tumor growth inhibition
difference to vehicle by Day 21 [9]: not statistically significant
MTD at 21 days ([10]; female, CD1 Nude, mouse, in vivo, po, 80 mg/kg BID): 80 mg/kg
body weight change [10, 13]: no significant body weight loss
tolerability [10, 13]: well tolerated
decline of exposure over the week of dosing [11]: 55 – 67%
PD markers micronuclei and γH2AX [12]: modest trend towards increased micronuclei and γH2AX
pIC50 (Pol ε): < 4.00
activity on Pol ε (Pol ε): inactive
activity on Pol λ (Pol λ): inactive
activity on Pol μ (Pol μ): inactive
